The values that follow come from patent US9393271B2, “GHRH agonists for islet cell transplantation and function and the treatment of diabetes” (UNIVERSITY OF MIAMI, priority 2012, dated 2016).

Non-standard residues stand in square brackets, D forms with d. Residues, ends and D or L forms follow the SMILES beside them. *: point of attachment. NMeY = CN[C@@H](Cc1ccc(O)cc1)C(=O)O; Agmatine = N=C(N)NCCCCN*; Nle = CCCC[C@H](N)C(=O)O; Orn = NCCC[C@H](N)C(=O)O; Abu = CC[C@H](N)C(=O)O

The target of test [1] is T1, GHRH receptor (human pituitary membrane homogenates) (Homo sapiens, UniProt Q02643).
T1 sequence (Q02643 23-423): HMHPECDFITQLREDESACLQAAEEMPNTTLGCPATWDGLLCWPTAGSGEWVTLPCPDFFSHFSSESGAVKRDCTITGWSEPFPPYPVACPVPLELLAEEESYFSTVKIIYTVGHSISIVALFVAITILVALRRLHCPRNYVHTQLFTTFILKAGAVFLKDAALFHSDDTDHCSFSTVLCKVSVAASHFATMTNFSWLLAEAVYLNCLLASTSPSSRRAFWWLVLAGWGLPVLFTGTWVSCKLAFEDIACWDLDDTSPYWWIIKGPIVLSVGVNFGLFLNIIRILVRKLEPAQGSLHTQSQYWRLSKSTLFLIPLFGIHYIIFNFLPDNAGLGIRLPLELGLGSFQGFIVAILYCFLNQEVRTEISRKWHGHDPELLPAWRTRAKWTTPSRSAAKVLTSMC
In words: GHRH receptor binding, ligand competition with 125I-labeled JV-1-42 (Table 5). As to conditions: for Relative affinitiy (Binding potency) vs GHRH: GHRH(1-29) = 1.
Source text: Normal human pituitaries were purchased from the National Hormone and Peptide Program (A. F. Parlow, Los Angeles, County Harbor-UCLA Medical Center, Torrance, Calif.).

The target of test [2] is T1, GHRH receptor (human pituitary membrane homogenates). Briefly: GHRH receptor binding, ligand competition with 125I-labeled [His1,Nle27]hGHRH(1-32)NH2 (Table 6). As to conditions: GHRH(1-29) = 1.
For the next test, the system named is rat pituitary cells. Briefly: GH release in superfused rat pituitary cell system. The format is cell-based. The following applies: 1 nM; for GH Response (ng/ml) Average / GH Response (ng/ml) 1 / GH Response (ng/ml) 2 / GH Response (ng/ml) 3: 3-min pulse; for GH Response (ng/ml) Average: average of runs; for GH Response (ng/ml) 1: run 1; for GH Response (ng/ml) 2: run 2; for GH Response (ng/ml) 3: run 3. Here is the method: Growth hormone releasing activity. Growth hormone releasing was assayed by using a superfused rat pituitary cell system as described in S. Vigh and A. V. Schally, Peptides 5, Suppl: 241-347, 1984. The new synthetic peptide analog of hGHRH P20356 and JI-38 (as control) were administered for 3 minutes (1 mL perfusate) at 1 nM concentration as shown below. Fractions of 1 ml are collected and the GH content in each was determined by ELISA.
Pituitary cells from 2 male rats were used for each channel of the superfusion system. The cells were exposed to 3-min pulses of the new GHRH agonists or to JI-38 as standard every 30 min. Outflowing samples of each channel (1 ml) were collected every 3 min, and GH levels were determined by ELISA.

In the next test the test system is GH level. Briefly: In vivo endocrine activity (GH release), subcutaneous administration. As to conditions: rat, s.c. On the procedure:
Subcutaneous Administration. Adult male rats were used and anesthetized with pentobarbital (6 mg/100 g, b.w.), by i.p. injection. […] Blood samples were taken from the jugular vein 5, 15 and/or 30 minutes after the injection. The blood samples were centrifuged, plasma was removed and the GH level was measured by ELISA. The results are summarized in terms of potency in Table 9.

Test [3] concerns the target T1, GHRH receptor (human pituitary membrane homogenates). In words: GHRH receptor binding, ligand competition with 125I-labeled JV-1-42 (Table 7). The following applies: JI-38 = 1. The arrangement: Normal human pituitaries were purchased from the National Hormone and Peptide Program; tissue National Hormone and Peptide Program (A. F. Parlow, Harbor-UCLA Medical Center, Torrance, Calif.); host or cells: normal human pituitary, membrane fraction / homogenate.

The mark [4] stands for this setting: fraction 1 (P-20356) / 21 (JI-38).
Where [5] appears, read: fraction 2 (P-20356) / 22 (JI-38).
The mark [6] stands for this setting: fraction 3 (P-20356) / 23 (JI-38).
Where [7] appears, read: fraction 4 (P-20356) / 24 (JI-38).
[8] abbreviates: fraction 5 (P-20356) / 25 (JI-38).

Take `CC[C@H](C)[C@H](NC(=O)[C@H](C)NC(=O)[C@H](CC(=O)O)NC(=O)[C@H](C)NC(=O)[C@@H](N)Cc1ccc(O)cc1)C(=O)N[C@@H](Cc1ccccc1)C(=O)N[C@H](C(=O)N[C@@H](CC(N)=O)C(=O)N[C@@H](CO)C(=O)N[C@@H](Cc1ccc(O)cc1)C(=O)N[C@@H](CCCNC(=N)N)C(=O)N[C@@H](CCCCN)C(=O)N[C@H](C(=O)N[C@@H](CC(C)C)C(=O)NCC(=O)N[C@@H](CCC(N)=O)C(=O)N[C@@H](CC(C)C)C(=O)N[C@@H](CO)C(=O)N[C@@H](C)C(=O)N[C@@H](CCCNC(=N)N)C(=O)N[C@@H](CCCCN)C(=O)N[C@@H](CC(C)C)C(=O)N[C@@H](CC(C)C)C(=O)N[C@@H](CCC(N)=O)C(=O)N[C@@H](CC(=O)O)C(=O)N[C@H](C(=O)N[C@@H](CCSC)C(=O)N[C@@H](CO)C(=O)N[C@@H](CCCNC(=N)N)C(N)=O)[C@@H](C)CC)C(C)C)[C@@H](C)O` [GHRH(1-29), hGHRH(1-29)NH2, reference compound]: the “Relative affinitiy (Binding potency) vs GHRH” value in test [1] and in test [2] was 1 throughout.

For the molecule `CCCC[C@H](NC(=O)[C@@H](NC(=O)[C@H](CC(=O)O)NC(=O)[C@H](CCC(N)=O)NC(=O)[C@H](CC(C)C)NC(=O)[C@H](CC(C)C)NC(=O)[C@H](CCCN)NC(=O)[C@H](CCCNC(=N)N)NC(=O)[C@H](C)NC(=O)[C@H](CO)NC(=O)[C@H](CC(C)C)NC(=O)[C@H](CCC(N)=O)NC(=O)[C@H](CC)NC(=O)[C@H](CC(C)C)NC(=O)[C@@H](NC(=O)[C@H](CCCN)NC(=O)[C@H](CCCNC(=N)N)NC(=O)[C@H](Cc1ccc(O)cc1)NC(=O)[C@H](CO)NC(=O)[C@H](CCC(N)=O)NC(=O)[C@@H](NC(=O)[C@H](Cc1ccccc1)NC(=O)[C@@H](NC(=O)[C@H](C)NC(=O)[C@H](CC(=O)O)NC(=O)[C@H](C)NC(=O)[C@H](Cc1ccc(O)cc1)NC)[C@@H](C)CC)[C@@H](C)O)C(C)C)[C@@H](C)CC)C(=O)N[C@@H](CC(=O)O)C(=O)NCCCCNC(=N)N` [Peptide P-20356, [N—Me-Tyr^1, Gln^8, Orn^12, Abu^15, Orn^21, Nle^27, Asp^28, Agm^29]hGHRH(1-29)] (H-[NMeY]ADAIFTQSYR[Orn]VL[Abu]QLSAR[Orn]LLQDI[Nle]D-Agmatine), the “GH Response (ng/ml) Average” value with rat pituitary cells (setting [4]) is 52.45 ng/mL; with rat pituitary cells (setting [5]), 337.48 ng/mL; in the test on rat pituitary cells (setting [6]) it was 556.46 ng/mL; in the test with rat pituitary cells (setting [7]) it was 334.99 ng/mL; in the test with rat pituitary cells (setting [8]), 197.91 ng/mL. Moreover, the “GH Response (ng/ml) 1” value worked out at 49.98 ng/mL with rat pituitary cells (setting [4]); 310.58 ng/mL in the test with rat pituitary cells (setting [5]); 491.01 ng/mL with rat pituitary cells (setting [6]); 399.95 ng/mL with rat pituitary cells (setting [7]); 200.64 ng/mL in the test on rat pituitary cells (setting [8]). The “GH Response (ng/ml) 2” value in the test on rat pituitary cells (setting [4]) was 54.99 ng/mL; with rat pituitary cells (setting [5]), 325.76 ng/mL; in the test on rat pituitary cells (setting [6]) it was 602.1 ng/mL; in the test with rat pituitary cells (setting [7]) it was 270.02 ng/mL; with rat pituitary cells (setting [8]), 195.18 ng/mL. The “GH Response (ng/ml) 3” value with rat pituitary cells (fraction 1) worked out at 52.37 ng/mL; in the test with rat pituitary cells (fraction 2), 376.11 ng/mL; in the test with rat pituitary cells (fraction 3), 576.26 ng/mL. Further, the “GH-releasing potency in vitro relative to JI-38” value in the test on rat pituitary cells (superfused rat pituitary cells) is “about 3 times”. In the test with GH level, the “Stimulation of growth hormone levels after s.c. administration (comparison in words)” value is reported as “stimulated greater growth hormone levels than hGHRH or JI-38”. Besides, the “Relative affinitiy (Binding potency) vs GHRH” value in test [1] was 406.0. Besides, the “Relative affinitiy (Binding potency) vs JI-38” value stood at 171 in test [1] (JI-38 = 1) and 16.11 in test [3].
